Experimental findings from patent US20030134859A1 (SANKYO COMPANY, LIMITED, priority 2000, published 2003) are described below.

The subject of one experiment is Rat white adipocytes. In words: Stimulation of differentiation of the adipocytes (Oil Red O). It counts as cell-based. As to conditions: 100 nM test compound, 5 days, Oil Red O ABS550, control = 100%, blank = 0%, Table 7; for activity at 0.1 µM: Rattus norvegicus, Adipocyte, 120 h, read-out: Rate of Differentiation (%). The method, then:
Rat white adipocytes contained in the white adipocyte culture kit, which was purchased from HOKUDO, were used. Mediums for proliferation and for differentiation-inducing, which were contained in the white adipocyte culture kit purchased from HOKUDO, were used.
Immediately after arrival of the purchased cells, all medium for transportation was discarded and replaced with 5 ml of proliferation medium (/25 cm^2-flask) and the cells were cultured for one day. Then, a cell suspension was prepared with proliferation medium so as to be 83,000 cells/mL, and the suspension was plated into a type I 96-well collagen-coated microplate (SUMITOMO BAKELITE CO., ltd.) so as to be 5,000 cells/well (60 μL/well). For the blank, the proliferation medium without the cells was plated into the well (blank well) of each plate.
Further, 1) in the group treated with the test compound, 3 μL/well of a solution in which the test compound (100 μM) was dissolved in DMSO solution and diluted with differentiation-inducing medium by 20 times (final concentration of the test compound: 100 nM, final concentration of DMSO: 0.1% (v/v)) were added to the well where the cells were plated. 2) In the control group, 3 μL/well of DMSO solution that was diluted with differentiation-inducing medium by 20 times (final concentration of DMSO: 0.1% (v/v)) were added to the well where the cells were plated. Further, 3) in the blank group, 3 μL/well of DMSO solution that was diluted with differentiation-inducing medium by 20 times (final concentration: 0.1% (v/v)) were added to the blank well.
After culturing for 5 days, all differentiation-inducing medium was discarded and replaced with 60 μL of 10% (v/v) of formaldehyde solution (for fixation) in each well and the cells were kept stationary for 20 min at room temperature. After this the fixative solution was discarded and replaced with 60 μL of 0.2% (v/v) Triton X (Sigma-Aldrich Japan K. K.) solution in each well and kept stationary for 5 min at the room temperature. Then all Triton X solution was discarded and replaced with 60 μL of 60% (v/v) isopropanol solution containing dissolved Oil Red 0 (Sigma-Aldrich Japan K. K.) so as to be 0.3%, which was adipose tissue staining solution, and the well was left stationary for 10 min at room temperature. After the adipose tissue staining solution was discarded, the well was washed twice with 60 μL of 60% (v/v) isopropanol solution. Then, 100 μL of the DMSO were added to each well and stirred for 5 min at room temperature. The absorbance was measured at 550 nm (ABS550) with a multi-plate reader (LabsSystems), and the stained amount by Oil Red 0 was determined. The measured level at ABS550 in the control group was defined as 100%, while the level at ABS550 in the blank group was defined as 0%. The differentiation rate (%) of the adipocytes treated with the test compound was calculated.

The test system of experiment [1] is Mouse preadipocyte strain 3T3-L1. Nature of the experiment: Inhibition of differentiation as an indication of acetic acid uptake. It counts as cell-based. The note with it: control (0.01% dimethylsulfoxide) = 100%; for activity at 0.1 µM: Mus musculus, read-out: Rate of Uptake (%) of [2-14C] acetic acid. The method, then:
As the basal medium, Dulbecco's modified Eagle's (DEM) medium (NISSUI PHARMACEUTICAL CO., LTD) was used. […] All culturing in the present Test Example was carried out in a CO2 incubator at 37° C. and 10% CO2 concentration.
The successively cultured 3T3-L1 cells were inoculated in a Biocoat Collagen I 96-well white/clear plate (Becton Dickinson and Co.) at a concentration of 4,900 cells/well, and were cultured in the basal medium containing added 10% (v/v) inactivated bovine fetal serum (FBS) for 10 days.
The medium was replaced with a differentiation-inducing medium in which inactivated FBS (final concentration: 5%), insulin (Sigma-Aldrich Japan K. K., final concentration: 10 μg/mL), isobutyl methyl xanthine (Aldrich K. K., final concentration: 0.5 mM) and dexamethazone (final concentration: 1 μM) were added so as to be at the final concentrations indicated in the parentheses. The cells were divided in the following 2 groups and were cultured for 4 days; 1) in the presence of 0.01% (v/v) dimethylsulfoxide, and 2) in the presence of 0.01% (v/v) dimethylsulfoxide in which was dissolved 1 mM of the test substance (final concentration of 0.1 μM). Then, the medium was further replaced with a maintenance medium in which inactivated […] and insulin were added to the base medium so as to be at final concentrations of 5% and 100 ng/mL, respectively, and the cells were cultured for 2 days.
The inhibitory activity of the test compound against cell differentiation was assayed by using uptake of [2-^14C] acetic acid into the cultured cells as an indicator. […] Then the cells were further incubated with the newly prepared medium for 1 hr. After washing the well with PBS (−), the cells were dried. To these wells, 100 μL/well of a scintillation cocktail (Hewlett-Packard Co., MICROSCINT-20 PACKARD) were added and their radioactivities were determined with a Packard TopCont microplate Scintillation Counter (Hewlett-Packard Co., PACKARD) and the uptake level of [2-^14C] acetic acid into the cultured cell was calculated.
On the basis of the calculated uptake level of [2-^14C] acetic acid into the cultured cells, the relative uptake level of [2-^14C] acetic acid in the group treated with the test compound was calculated against the uptake level of [2-^14C] acetic acid in the presence of 0.01% (v/v) dimethylsulfoxide solution described in 1) (100%).
Value=Uptake Level (cpm) of [2-^14C] Acetic Acid in the Presence of the Test Substance
Control=Uptake Level (cpm) of [2-^14C] Acetic Acid in the Control Group (0.01% dimethylsulfoxide)
Uptake Rate (%) of [2-^14C] Acetic Acid=100×[Value]/[Control]

The next experiment concerns leptin production. Nature of the experiment: Enhancing activity for leptin production in adipocytes (ELISA). The format is cell-based, rat. As to conditions: leptin concentration as % of control group; for Facilitating activity to produce leptin: 24 hr. The method, boiled down: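 Leptin release, quantified by rat leptin ELISA, expressed as percent of 0.1% DMSO control after 24 h at 37 °C. Cells were floating adipocytes isolated by collagenase digestion of epididymal fat from male 6-week Wistar Imamichi rats; compound tested at 1 nM–1 µM final.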
A general note: An ELISA detects its analyte on a solid surface through an enzyme-linked reagent.

[2] abbreviates: Rattus norvegicus, Adipocyte, 24 h, 100 nm, read-out: Facilitating activity to produce leptin.

Like-named read-outs stand apart in the source and are kept apart here.

Regarding `N#Cc1ccccc1NC(=O)c1cc([N+](=O)[O-])ccc1Cl` [Example 22, N-(2-Cyanophenyl)-(2-chloro-5-nitrophenyl)carboxamide], the activity at 0.1 µM with Rat white adipocytes turned out to be 127%; in experiment [1] (3T3-L1, 0.1 μM test substance), 51.5%.
The corresponding values for `O=C(Nc1ncc(Br)s1)c1cc([N+](=O)[O-])ccc1Cl` [Example 48, N-(5-Bromothiazol-2-yl)-(2-chloro-5-nitrophenyl)carboxamide] are 131% and 70.3%.
Consider `COC(=O)c1nccnc1NC(=O)c1cc([N+](=O)[O-])ccc1Cl` [Example 60, N-(2-Metboxycarbonylpyrazin-3-yl)-(2-chloro-5-nitrophenyl)carboxamide], for which the “Rate of Differentiation (%)” value in the experiment with Rat white adipocytes amounted to 110.5%. Moreover, in experiment [1] (0.1 μM test substance), the “Rate of Uptake (%) of [2-14C] acetic acid” value is listed as 68.8%.
Turning to `Cc1ccnc(NC(=O)c2cc([N+](=O)[O-])ccc2Cl)c1[N+](=O)[O-]` [Example 63, N-(4-Methyl-3-nitropyridin-2-yl)-(2-chloro-5-nitrophenyl)carboxamide], the activity at 0.1 µM with Rat white adipocytes worked out at 120%; in experiment [1] (0.1 μM test substance), 85.5%.
`O=C(Nc1nc2ccc(F)cc2s1)c1cc([N+](=O)[O-])ccc1Cl` [Example 70, N-(6-Fluorobenzothiazol-2-yl)-(2-chloro-5-nitrophenyl)carboxamide]: the activity at 0.1 µM in the experiment on Rat white adipocytes came to 122%; in experiment [1] (3T3-L1, 0.1 μM test substance) it was 70.2%.
Regarding `O=C(Nc1ncccc1[N+](=O)[O-])c1cc([N+](=O)[O-])ccc1Cl` [Example 80, N-(3-Nitropyridin-2-yl)-(2-chloro-5-nitrophenyl)carboxamide], the activity at 0.1 µM in the experiment on Rat white adipocytes turned out to be 118%; in experiment [1] (0.1 μM test substance) it was 83.3%.
Turning to `O=C(Nc1ccc(N2CCOCC2)cc1)c1cc([N+](=O)[O-])ccc1Cl` [Example 113, N-[4-(Morpholin-4-yl)phenyl]-(2-chloro-5-nitrophenyl)carboxamide], the activity at 0.1 µM worked out at 111% with Rat white adipocytes and 84.6% in experiment [1] (3T3-L1, 0.1 μM test substance).
For `O=C(O)c1cccc(NC(=O)c2cc([N+](=O)[O-])ccc2Cl)c1` [Example 145, 3-(2-Chloro-5-nitrobenzoylamino)benzoic Acid] the same measures were 141% and 87.6%.
For `O=C(Nc1cccnc1)c1ccc(NC(=O)c2cc([N+](=O)[O-])ccc2Cl)cc1` [Example 148, N-[4-(Pyridin-3-ylaminocarbonyl)phenyl]-(2-chloro-5-nitrophenyl)carboxamide] the same measures were 119% and 75.3%.
Consider `Cl.NCCc1ccc(NC(=O)c2cc([N+](=O)[O-])ccc2Cl)cc1` [Example 169, N-[4-(2-Aminoethyl)phenyl]-(2-chloro-5-nitrophenyl)carboxamide Hydrochloride 0.2 Hydrate], for which the “Rate of Differentiation (%)” value with Rat white adipocytes was 114.9%. Moreover, in the experiment on leptin production (100 nm), the “Facilitating activity to produce leptin” value is 111.6%.
Turning to `O=C(O)Cc1ccc(NC(=O)c2cc([N+](=O)[O-])ccc2Cl)cc1` [Example 170, [4-(2-Chloro-5-nitrobenzoylamino)phenyl]acetic Acid], the activity at 0.1 µM in the experiment with Rat white adipocytes is 115%; in the experiment with leptin production (setting [2]), 117%.
With `CN(C)c1ccc(NC(=O)c2cc([N+](=O)[O-])ccc2Cl)cc1` [Example 173, N-(4-Dimethylaminophenyl)-(2-chloro-5-nitrophenyl)carboxamide], the activity at 0.1 µM with Rat white adipocytes was 134%. Also, in the experiment with leptin production (Rattus norvegicus, Adipocyte, 24 h, 1 μM, read-out: Facilitating activity to produce leptin), the activity at 1 µM was determined as 119%. Further, the activity at 0.001 µM in the experiment with leptin production (Rattus norvegicus, Adipocyte, 24 h, 1 nm, read-out: Facilitating activity to produce leptin) came out at 112%.
As to `CC(=O)N1CCN(c2ccc(NC(=O)c3cc([N+](=O)[O-])ccc3Cl)cc2)CC1` [Example 183, N-[4-(4-Acetylpiperazin-1-yl)phenyl]-(2-chloro-5-nitrophenyl)carboxamide], the results for the activity at 0.1 µM in the experiment with Rat white adipocytes and with leptin production (setting [2]) were 118% and 112%, respectively.
Consider `O=C(Nc1ccc(S(=O)(=O)Nc2ccc(-n3ccnc3)cc2)cc1)c1cc([N+](=O)[O-])ccc1Cl` [Example 187, N-[[4-[4-(Imidazol-1-yl)phenyl]aminosulfonyl]phenyl]-(2-chloro-5-nitrophenyl)carboxamide], for which the “Rate of Differentiation (%)” value in the experiment on Rat white adipocytes was determined as 112.7%. Also, the “Facilitating activity to produce leptin” value in the experiment with leptin production (10 nm) amounted to 113.3%; in the experiment on leptin production (100 nm) it was 126.2%.
On to “N-(5-Bromo-3-nitropyridin-2-yl)-(−2-chloro-5-nitrophenyl-carboxamide [Example 84]”, for which the “Rate of Differentiation (%)” value in the experiment with Rat white adipocytes came to 151.4%. In experiment [1] (0.1 μM test substance), the “Rate of Uptake (%) of [2-14C] acetic acid” value came to 59.5%.
